From ChEMBL document CHEMBL1201862, “PubChem BioAssay data set” (2004)
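Exposure lasted 48 hours, with cells grown in 96-well plates and compounds tested at five concentrations. Here, GI50 denotes the concentration required for 50% inhibition of growth.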 Activity calls are given as the source filed them. Cut-off read from the data, not from the text of the source: active = GI50 up to about 1.1 µM and inactive = higher.

Experiments:
Test in all cases: growth of human tumour cells (NCI), 48 h
[1] = test system: A498
[2] = test system: BT-549
[3] = test system: CCRF-CEM
[4] = test system: COLO 205
[5] = test system: DU-145
[6] = test system: EKVX
[7] = test system: HCT-15
[8] = test system: HT-29
[9] = test system: KM-20L2
[10] = test system: KM12
[11] = test system: MDA-MB-231
[12] = test system: MDA-N
[13] = test system: NCI-H460
[14] = test system: SF-268
[15] = test system: SF-539
[16] = test system: SK-MEL-28
[17] = test system: SK-MEL-2
[18] = test system: SK-MEL-5
[19] = test system: SNB-75
[20] = test system: U-251

| Compound | GI50 [1] | GI50 [2] | GI50 [3] | GI50 [4] | GI50 [5] | GI50 [6] | GI50 [7] [µM] | GI50 [8] | GI50 [9] | GI50 [10] | GI50 [11] | GI50 [12] | GI50 [13] | GI50 [14] | GI50 [15] | GI50 [16] | GI50 [17] | GI50 [18] | GI50 [19] | GI50 [20] |
| --- | --- | --- | --- | --- | --- | --- | --- | --- | --- | --- | --- | --- | --- | --- | --- | --- | --- | --- | --- | --- |
| O=c1[nH]c(=O)n(C2CC(O)C(CS)O2)cc1F (configuration not stated) | 26.6 µM (inactive) | > 100 µM (inactive) | 30.5 µM (inactive) | 52.5 µM (inactive) | 61.2 µM (inactive) | > 100 µM (inactive) | 74.5 | 66.1 µM (inactive) | 78.9 µM (inactive) | 99.1 µM (inactive) | > 80 µM (inactive) | 86.9 µM (inactive) | 6.87 µM (inactive) | 20.8 µM (inactive) | 11 µM (inactive) | 74.1 µM (inactive) | > 100 µM (inactive) | 70.1 µM (inactive) | 55.6 µM (inactive) | 72.8 µM (inactive) |
| CC1C=CC(C(N)C(=O)O)O1 (configuration not stated) | > 100 µM (inactive) |  | > 100 µM (inactive) | > 100 µM (inactive) |  | > 100 µM (inactive) | > 100 | > 100 µM (inactive) | > 100 µM (inactive) | > 100 µM (inactive) |  |  | > 100 µM (inactive) | > 100 µM (inactive) | > 100 µM (inactive) | > 100 µM (inactive) | > 100 µM (inactive) | > 100 µM (inactive) | > 100 µM (inactive) | > 100 µM (inactive) |
| CCOc1ccc(OP2(=O)NC(=O)C=C(C)N2)cc1 (configuration not stated) | > 100 µM (inactive) |  | 44.2 µM (inactive) | > 100 µM (inactive) |  | > 100 µM (inactive) | > 100 | > 100 µM (inactive) | > 100 µM (inactive) | > 100 µM (inactive) |  |  | > 100 µM (inactive) | > 100 µM (inactive) | > 100 µM (inactive) | > 100 µM (inactive) | > 100 µM (inactive) | > 100 µM (inactive) | > 100 µM (inactive) | > 100 µM (inactive) |
| C[Si](C)(C)/C=C/CN1C(=O)CCC1O (configuration not stated) | > 100 µM (inactive) |  | > 100 µM (inactive) | > 100 µM (inactive) |  | > 100 µM (inactive) | > 100 | > 100 µM (inactive) | > 100 µM (inactive) | > 100 µM (inactive) |  |  | > 100 µM (inactive) | > 100 µM (inactive) | > 100 µM (inactive) | > 100 µM (inactive) | > 100 µM (inactive) | > 100 µM (inactive) | > 100 µM (inactive) | > 100 µM (inactive) |
| CCSc1nc(COC(=O)NC)c(COC(=O)NC)n1C | > 67.9 µM (inactive) | > 100 µM (inactive) | 54 µM (inactive) | > 74.3 µM (inactive) |  | > 100 µM (inactive) | > 100 | > 100 µM (inactive) | > 100 µM (inactive) | > 100 µM (inactive) | > 100 µM (inactive) | > 100 µM (inactive) | 73.1 µM (inactive) | 70.1 µM (inactive) | 98.9 µM (inactive) | > 100 µM (inactive) | > 89.7 µM (inactive) | > 100 µM (inactive) | > 100 µM (inactive) | > 84.9 µM (inactive) |
